According to the supplement of paper PMC10307832:

Key:
Assay in all cases: relative viability (nuclei count vs DMSO), 5 days (fraction); higher = more cells survive
NCI-H2085 = test system: NCI-H2085
How it was run: (§1)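 The day after seeding in 1536-well plates, lung cancer cell lines were treated by pin tool with a single drug, or with a fixed anchor-drug dose together with five library-drug doses (not always all listed) in √10 steps. After 5 days, a combined fix-and-stain solution (final 0.05% Triton X-100, 1% formaldehyde, 1 ug/ml Hoechst) was added. Nuclei counted on 4× images gave relative viability as treated counts over vehicle counts, reported as the median of duplicate plates.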

NCI-H358 = test system: NCI-H358
How it was run: as §1

NCI-H1755 = test system: NCI-H1755
How it was run: as §1

NCI-H1563 = test system: NCI-H1563
How it was run: as §1

NCI-H838 = test system: NCI-H838
How it was run: as §1

CAL-12T = test system: CAL-12T
How it was run: as §1

NCI-H1975 = test system: NCI-H1975
How it was run: as §1

HCC-366 = test system: HCC-366
How it was run: as §1

NCI-H1651 = test system: NCI-H1651
How it was run: as §1

NCI-H1437 = test system: NCI-H1437
How it was run: as §1

LOU-NH91 = test system: LOU-NH91
How it was run: as §1

BEN = test system: BEN
How it was run: as §1

HCC-44 = test system: HCC-44
How it was run: as §1

NCI-H1355 = test system: NCI-H1355
How it was run: as §1

NCI-H1650 = test system: NCI-H1650
How it was run: as §1

EKVX = test system: EKVX
How it was run: as §1

LU99A = test system: LU99A
How it was run: as §1

NCI-H460 = test system: NCI-H460
How it was run: as §1

NCI-H441 = test system: NCI-H441
How it was run: as §1

NCI-H2023 = test system: NCI-H2023
How it was run: as §1

NCI-H1734 = test system: NCI-H1734
How it was run: as §1

Oc1nc(-c2ccc(C(F)(F)F)cc2)nc2c1CSCC2 [XAV939] + C[C@@H](Oc1cc(-c2cnn(C3CCNCC3)c2)cnc1N)c1c(Cl)ccc(F)c1Cl [Crizotinib] (partner 1 µM)
relative viability (NCI-H2085; first compound 0.08 µM): 0.961
relative viability (NCI-H2085; first compound 0.253 µM): 0.826
relative viability (NCI-H2085; first compound 0.8 µM): 0.917
relative viability (NCI-H2085; first compound 2.53 µM): 0.734
relative viability (NCI-H358; first compound 0.08 µM): 0.729
relative viability (NCI-H358; first compound 0.253 µM): 0.45
relative viability (NCI-H358; first compound 0.8 µM): 0.563
relative viability (NCI-H358; first compound 2.53 µM): 0.573
relative viability (NCI-H1755; first compound 0.08 µM): 0.832
relative viability (NCI-H1755; first compound 0.253 µM): 0.731
relative viability (NCI-H1755; first compound 0.8 µM): 0.778
relative viability (NCI-H1755; first compound 2.53 µM): 0.762
relative viability (NCI-H1563; first compound 0.08 µM): 0.834
relative viability (NCI-H1563; first compound 0.253 µM): 0.846
relative viability (NCI-H1563; first compound 0.8 µM): 0.789
relative viability (NCI-H1563; first compound 2.53 µM): 0.697
relative viability (NCI-H838; first compound 0.08 µM): 0.875
relative viability (NCI-H838; first compound 0.253 µM): 0.719
relative viability (NCI-H838; first compound 0.8 µM): 0.759
relative viability (NCI-H838; first compound 2.53 µM): 0.432
relative viability (CAL-12T; first compound 0.08 µM): 0.687
relative viability (CAL-12T; first compound 0.253 µM): 0.449
relative viability (CAL-12T; first compound 0.8 µM): 0.419
relative viability (CAL-12T; first compound 2.53 µM): 0.56
relative viability (NCI-H1975; first compound 0.08 µM): 1.07
relative viability (NCI-H1975; first compound 0.253 µM): 0.666
relative viability (NCI-H1975; first compound 0.8 µM): 0.919
relative viability (NCI-H1975; first compound 2.53 µM): 0.737
relative viability (HCC-366; first compound 0.08 µM): 0.66
relative viability (HCC-366; first compound 0.253 µM): 0.56
relative viability (HCC-366; first compound 0.8 µM): 0.52
relative viability (HCC-366; first compound 2.53 µM): 0.466
relative viability (NCI-H1651; first compound 0.08 µM): 0.988
relative viability (NCI-H1651; first compound 0.253 µM): 0.798
relative viability (NCI-H1651; first compound 0.8 µM): 0.857
relative viability (NCI-H1651; first compound 2.53 µM): 0.856
relative viability (NCI-H1437; first compound 0.08 µM): 1.03
relative viability (NCI-H1437; first compound 0.253 µM): 0.915
relative viability (NCI-H1437; first compound 0.8 µM): 0.947
relative viability (NCI-H1437; first compound 2.53 µM): 0.788
relative viability (LOU-NH91; first compound 0.08 µM): 0.719
relative viability (LOU-NH91; first compound 0.253 µM): 0.708
relative viability (LOU-NH91; first compound 0.8 µM): 0.734
relative viability (LOU-NH91; first compound 2.53 µM): 0.699
relative viability (BEN; first compound 0.08 µM): 0.868
relative viability (BEN; first compound 0.253 µM): 0.788
relative viability (BEN; first compound 0.8 µM): 0.978
relative viability (HCC-44; first compound 0.08 µM): 0.785
relative viability (HCC-44; first compound 0.253 µM): 0.796
relative viability (HCC-44; first compound 0.8 µM): 0.79
relative viability (HCC-44; first compound 2.53 µM): 0.75
relative viability (NCI-H1355; first compound 0.08 µM): 1.05
relative viability (NCI-H1355; first compound 0.253 µM): 0.9
relative viability (NCI-H1355; first compound 0.8 µM): 0.828
relative viability (NCI-H1355; first compound 2.53 µM): 0.725
relative viability (NCI-H1650; first compound 0.08 µM): 1.1
relative viability (NCI-H1650; first compound 0.253 µM): 0.699
relative viability (NCI-H1650; first compound 0.8 µM): 0.948
relative viability (NCI-H1650; first compound 2.53 µM): 0.729
relative viability (EKVX; first compound 0.08 µM): 1.09
relative viability (EKVX; first compound 0.253 µM): 0.95
relative viability (EKVX; first compound 0.8 µM): 0.975
relative viability (EKVX; first compound 2.53 µM): 0.586
relative viability (LU99A; first compound 0.08 µM): 0.539
relative viability (LU99A; first compound 0.253 µM): 0.55
relative viability (LU99A; first compound 0.8 µM): 0.567
relative viability (LU99A; first compound 2.53 µM): 0.504
relative viability (NCI-H460; first compound 0.08 µM): 1.44
relative viability (NCI-H460; first compound 0.253 µM): 0.879
relative viability (NCI-H460; first compound 0.8 µM): 0.816
relative viability (NCI-H460; first compound 2.53 µM): 0.874
relative viability (NCI-H441; first compound 0.08 µM): 0.986
relative viability (NCI-H441; first compound 0.253 µM): 0.724
relative viability (NCI-H441; first compound 0.8 µM): 0.66
relative viability (NCI-H441; first compound 2.53 µM): 0.779
relative viability (NCI-H2023; first compound 0.08 µM): 0.598
relative viability (NCI-H2023; first compound 0.253 µM): 0.581
relative viability (NCI-H2023; first compound 0.8 µM): 0.468
relative viability (NCI-H2023; first compound 2.53 µM): 0.43
relative viability (NCI-H1734; first compound 0.08 µM): 0.725
relative viability (NCI-H1734; first compound 0.253 µM): 0.637
relative viability (NCI-H1734; first compound 0.8 µM): 0.662
relative viability (NCI-H1734; first compound 2.53 µM): 0.619
